Experiments:
[1] = system: MC28 cells
[2] = system: MC28 cells; remark: listed apart in the source
[3] = system: MC28 cells; assay type: cell-based, rat

Compound | LD50 PDT ([1]; 18 h) | LD50 dark ([1]; 24 h) | cellular uptake [2] | subcellular localisation [2] | reduction in viability using saporin alone [3]
N=C(N)NCCC[C@H](NC(=O)CN)C(=O)N[C@@H](CCCCN)C(=O)N[C@@H](CCCCN)C(=O)N[C@@H](CCCNC(=N)N)C(=O)N[C@@H](CCCNC(=N)N)C(=O)N[C@@H](CCC(N)=O)C(=O)N[C@@H](CCCNC(=N)N)C(=O)N[C@@H](CCCNC(=N)N)C(=O)N[C@@H](CCCNC(=N)N)C(=O)NCC(=O)N[C@@H](Cc1ccc(O)cc1)C(=O)N[C@@H](CCCCN)C(=O)N[C@@H](CSC1CC(=O)N(CCC(=O)Nc2ccc(-c3c4nc(c(-c5ccccc5)c5ccc([nH]5)c(-c5ccccc5)c5nc(c(-c6ccccc6)c6ccc3[nH]6)C=C5)C=C4)cc2)C1=O)C(N)=O (some centres unmarked) [Compound 20] | 94 ± 6 nM | ≫1 μM | efficient uptake | Endolysosomal localisation | –
saporin | – | – | – | – | approximately 10%
